Data: PMC5748531, “Antimycobacterial Activities of N-Substituted-Glycinyl 1H-1,2,3-Triazolyl Oxazolidinones and Analytical Method Development and Validation for a Representative Compound” (Scientia Pharmaceutica, 2017)
Converted amounts (≈) assume the structure as drawn.

Assays:
Mtb H37Rv (SRI 1345) [1] = assay: MIC broth microdilution, Mtb H37Rv; assay type: cell-based; conditions: Mycobacterium tuberculosis, 168 h, read-out: MIC H37Rv
in vitro = conditions: mouse
Mtb H37Rv (SRI 1345) [2] = assay: Low-oxygen recovery assay (LORA), non-replicating persistence; assay type: cell-based, Mycobacterium tuberculosis; conditions: 7 days anaerobic then 7 days ambient, 37 °C
[3] = test system: Mtb H37Rv, INH-R, RMP-R and OFX-R Mtb; assay: MIC screening, all Mtb strains tested; assay type: cell-based, Mycobacterium tuberculosis; conditions: range over H37Rv
[4] = Drug cytotoxicity control plate assay (MTT cell proliferation); conditions: mouse
[5] = assay type: in vitro ADME; conditions: 90 min, 50 μg/mL
Protocol: Aliquots of 0.5 mL of plasma samples (calibration standards) were mixed with 200 μL aliquots of internal standard solution using appropriate concentration (10–90 μg/mL) for PH-189 concentrations. The samples were loaded unto solid phase extraction (SPE) cartridges on a vacuum 20 position extraction manifold (Waters). The cartridges were pre-conditioned with 1 mL of acetonitrile followed by 1 mL of water. The loaded cartridges were washed with 1 mL of acetonitrile and the analytes (PH-189 and internal standard) were eluted with acetonitrile into a 1.5 mL glass vials. The collected samples were filtered using Kinesis syringe membrane filters (Kinesis Ltd, St Neots, UK) (13 mm) and were used for injection and analysis. The PH-189/internal standard ratios were used to calculate calibration curve and to determine PH-189 concentration in human plasma after 90 min at 37 °C.
Accuracy and precision of the UHPLC method for PH-189 was evaluated by preparing six sets of PH-189 in blank human plasma within the concentration ranges of the calibration curve. Accuracy and precision were performed in triplicate using four concentration levels of 1, 10, 50, and 90 μg/mL. […] Freezer-stored samples were thawed, extracted, and analyzed as previously mentioned. […]

[6] = Stock standard solution stability; assay type: physicochemical; conditions: 100 μg/mL in acetonitrile, refrigerator (4 °C)
Protocol: Stock standard solutions of PH-189 and indapamide as internal standard were separately prepared by dissolving 10 mg of the compounds in 100 mL of acetonitrile to give stock concentrations of 100 μg/mL. Working solutions of PH-189 and internal standard were prepared by diluting the stock solutions with acetonitrile to obtain concentrations of 10 μg/mL and 90 μg/mL. Stock solutions were stable for at least 5 weeks when stored in a refrigerator (4 °C).

S. aureus = test system: S. aureus; design: method as in PMID 23811087; conditions: S. aureus in vitro; cited from earlier work
Mtb H37Rv (SRI 1345) [7] = assay: Minimal bactericidal concentration (MBC); assay type: cell-based; conditions: Mycobacterium tuberculosis, read-out: MBC H37Rv
[8] = test system: intracellular (macrophage) Mtb H37Rv (SRI 1345) in J774 cells; assay: Intracellular (macrophage) drug screening assay; assay type: cell-based, Mycobacterium tuberculosis; conditions: range at the three concentrations tested
[9] = Mycobacterium tuberculosis, H37RV, 168 h, read-out: LORA, lowest concentration that visually inhibits growth
[10] = MTT % Viability (High Conc.), high conc., same as in macrophage assay
[11] = MTT % Viability (Low Conc.), low conc., same as in macrophage assay
[12] = MTT % Viability (Mid Conc.), mid conc., same as in macrophage assay

Cc1cn(CC2CN(c3ccc(N4CCN(C(=O)CNC(=O)c5ccc([N+](=O)[O-])o5)CC4)c(F)c3)C(=O)O2)nn1 (centres unmarked) [PH-145]
MIC (Mtb H37Rv (SRI 1345) [1]): 0.5 µM (≈ 0.278 µg/mL)
viability (in vitro; MTT % Viability (High Conc.)): 75%
viability (in vitro; MTT % Viability (Low Conc.)): 87%
viability (in vitro; MTT % Viability (Mid Conc.)): 93%

CCOC(=O)CC(=O)NCC(=O)N1CCN(c2ccc(N3CC(Cn4cc(C)nn4)OC3=O)cc2F)CC1 (centres unmarked) [PH-150]
MIC (Mtb H37Rv (SRI 1345) [1]): 5.8 µM (≈ 3.08 µg/mL)
MIC (Mtb H37Rv (SRI 1345) [2]; [9]): > 58 µM
viability (in vitro; MTT % Viability (High Conc.)): 62%
viability (in vitro; MTT % Viability (Low Conc.)): 78%
viability (in vitro; MTT % Viability (Mid Conc.)): 82%

Cc1cn(CC2CN(c3ccc(N4CCN(C(=O)CN)CC4)c(F)c3)C(=O)O2)nn1 (centres unmarked) [PH-151]
MIC (Mtb H37Rv (SRI 1345) [1]): 5.8 µM (≈ 2.42 µg/mL)
MIC (Mtb H37Rv (SRI 1345) [2]; [9]): > 58 µM
viability (in vitro; MTT % Viability (High Conc.)): 74%
viability (in vitro; MTT % Viability (Low Conc.)): 83%
viability (in vitro; MTT % Viability (Mid Conc.)): 87%

CC(=O)NCC(=O)N1CCN(c2ccc(N3CC(Cn4ccnn4)OC3=O)cc2F)CC1 (centres unmarked) [PH-165]
MIC (Mtb H37Rv (SRI 1345) [1]): 6.7 µM (≈ 2.98 µg/mL)
MIC (Mtb H37Rv (SRI 1345) [2]; [9]): > 58 µM
viability (in vitro; MTT % Viability (High Conc.)): 84%
viability (in vitro; MTT % Viability (Low Conc.)): 91%
viability (in vitro; MTT % Viability (Mid Conc.)): 87%

CCOC(=O)CC(=O)NCC(=O)N1CCN(c2ccc(N3CC(Cn4ccnn4)OC3=O)cc2F)CC1 (centres unmarked) [PH-169]
MIC (Mtb H37Rv (SRI 1345) [1]): 2.9 µM (≈ 1.5 µg/mL)
viability (in vitro; MTT % Viability (High Conc.)): 73%
viability (in vitro; MTT % Viability (Low Conc.)): 76%
viability (in vitro; MTT % Viability (Mid Conc.)): 75%

NCC(=O)N1CCN(c2ccc(N3CC(Cn4ccnn4)OC3=O)cc2F)CC1 (centres unmarked) [PH-172]
MIC (Mtb H37Rv (SRI 1345) [1]): 3.6 µM (≈ 1.45 µg/mL)
MIC (Mtb H37Rv (SRI 1345) [2]; [9]): > 58 µM
MIC (Mtb H37Rv (SRI 1345) [2]; lowest concentration that visually inhibits growth, read-out: LORA): >58 µM
viability (in vitro; MTT % Viability (High Conc.)): 71%
viability (in vitro; MTT % Viability (Low Conc.)): 87%
viability (in vitro; MTT % Viability (Mid Conc.)): 72%

Cc1cn(CC2CN(c3ccc(N4CCN(C(=O)CNC(=O)c5cc([N+](=O)[O-])cc([N+](=O)[O-])c5)CC4)c(F)c3)C(=O)O2)nn1 (centres unmarked) [PH-181]
MIC (Mtb H37Rv (SRI 1345) [1]): 3.3 µM (≈ 2.02 µg/mL)
MIC value range against all Mtb strains tested [3]: 0.052 to 3.3 µM
viability [4, 10]: 39%
viability [4, 11]: 91%
viability [4, 12]: 88%

Cc1cn(CC2CN(c3ccc(N4CCN(C(=O)CNC(=O)C(Cl)Cl)CC4)c(F)c3)C(=O)O2)nn1 (centres unmarked) [PH-182]
MIC (Mtb H37Rv (SRI 1345) [1]): 1.9 µM (≈ 1 µg/mL)
MIC (Mtb H37Rv (SRI 1345) [2]; [9]): 0.015 to 5.7 µM (≈ 0.00793 to 3.01 µg/mL)
viability (in vitro; MTT % Viability (High Conc.)): 87%
viability (in vitro; MTT % Viability (Low Conc.)): 84%
viability (in vitro; MTT % Viability (Mid Conc.)): 90%

Cc1cn(CC2CN(c3ccc(N4CCN(C(=O)CNC(=O)c5cccnc5)CC4)c(F)c3)C(=O)O2)nn1 (centres unmarked) [PH-185]
MIC (Mtb H37Rv (SRI 1345) [1]): 5.7 to 11.5 µM (≈ 2.98 to 6.01 µg/mL)
viability (in vitro; MTT % Viability (High Conc.)): 39%
viability (in vitro; MTT % Viability (Low Conc.)): 88%
viability (in vitro; MTT % Viability (Mid Conc.)): 94%

O=C(NCC(=O)N1CCN(c2ccc(N3CC(Cn4ccnn4)OC3=O)cc2F)CC1)c1ccc([N+](=O)[O-])o1 (centres unmarked) [PH-189]
MIC (Mtb H37Rv (SRI 1345) [1]): 0.5 µM (≈ 0.271 µg/mL)
average amount of PH-189 found in human plasma [5]: 48.79 µg/mL
recovered from human plasma [5]: more than 90%
stock solutions stable for [6]: at least 5 weeks
MIC value in the presence of 50% human plasma (S. aureus): remained unchanged
viability (in vitro; MTT % Viability (High Conc.)): 86%
viability (in vitro; MTT % Viability (Low Conc.)): 98%
viability (in vitro; MTT % Viability (Mid Conc.)): 88%

O=C(NCC(=O)N1CCN(c2ccc(N3CC(Cn4ccnn4)OC3=O)cc2F)CC1)c1cc([N+](=O)[O-])cc([N+](=O)[O-])c1 (centres unmarked) [PH-193]
MIC (Mtb H37Rv (SRI 1345) [1]): 1.7 µM (≈ 1.02 µg/mL)
MIC value range against all Mtb strains tested [3]: 0.052 to 3.3 µM
viability [4, 10]: 74%
viability [4, 11]: 100%
viability [4, 12]: 100%

O=C(NCC(=O)N1CCN(c2ccc(N3CC(Cn4ccnn4)OC3=O)cc2F)CC1)c1cccnc1 (centres unmarked) [PH-195]
MIC (Mtb H37Rv (SRI 1345) [1]): 3.9 µM (≈ 1.98 µg/mL)
viability (in vitro; MTT % Viability (High Conc.)): 71%
viability (in vitro; MTT % Viability (Low Conc.)): 100%
viability (in vitro; MTT % Viability (Mid Conc.)): 100%

CO[C@H]1/C=C/O[C@@]2(C)Oc3c(C)c(O)c4c(O)c(c(/C=N/N5CCN(C)CC5)c(O)c4c3C2=O)NC(=O)/C(C)=C\C=C\[C@H](C)[C@H](O)[C@@H](C)[C@@H](O)[C@@H](C)[C@H](OC(C)=O)[C@@H]1C [RMP, Rifampicin, reference compound]
MIC (Mtb H37Rv (SRI 1345) [1]): 0.06 µM (≈ 0.0494 µg/mL)
MBC (Mtb H37Rv (SRI 1345) [7]): 1.56 µM (≈ 1.28 µg/mL)
MIC (Mtb H37Rv (SRI 1345) [2]; Mycobacterium tuberculosis, H37RV, 168 h, lowest concentration that visually inhibits growth, read-out: LORA): 0.95 µM (≈ 0.782 µg/mL)
Macrophage log reduction in Mtb, range [8]: 1.62–2.43
viability ([4]; uninfected J774 macrophages, MTT % Viability (High Conc.), high conc., same as in macrophage assay): 84%
viability ([4]; uninfected J774 macrophages, MTT % Viability (Low Conc.), low conc., same as in macrophage assay): 92%
viability ([4]; uninfected J774 macrophages, MTT % Viability (Mid Conc.), mid conc., same as in macrophage assay): 85%
viability ([4]; uninfected J774 macrophages, MTT percent cell viability, range, range at the three concentrations tested): 84 to 92%
